TGI and GI50 data for 35 compounds are collected here from PubChem BioAssay (NCI).

What all share (assay): growth of human tumour cells (NCI), 48 h
The test system of test [1] is DMS 273 small cell lung.
For test [2], the system named is DMS 114 small cell lung.
The test system of test [3] is HOP-18 NSCLC.
The test system of test [4] is XF 498 CNS.
Test [5] concerns DLD-1 colon.
The subject of test [6] is RXF-631 renal.
The test system of test [7] is LXFL 529 NSCLC.
Test [8] concerns SNB-78 CNS.
The subject of test [9] is MDA-N.

“And” between values parts separate entries of the source, which are not always exact repeats. Equal entries are not always repeated.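 How tested: cells in 96-well plates exposed to compound for 48 hours at five concentrations. GI50 marks 50% less growth. TGI marks complete inhibition of growth.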 Bounds are passed on as bounds.

`N/C=N/S(=O)(=O)c1ccc(NC(=O)COC(=O)c2cccc3c(=O)c4ccccc4[nH]c23)cc1`: the TGI in test [1], in [2], in test [3], in [4] and in [5] was > 100 µM in each case.
In the case of `CCc1ccccc1NC(=O)C(=O)C(C#N)c1ccccc1Cl` (stereo unspecified), the TGI in [2], in test [3], in [6], in [4], in test [7] and in test [5] was > 100 µM each time. Besides, the TGI in test [8] is > 100 µM.
`O=Cc1cccc2ccc3ccccc3c12` displayed a TGI in test [9] of 73.2 µM.
Turning to `O=C(Cc1ccccc1[N+](=O)[O-])C(CO)c1ccccc1[N+](=O)[O-]` (stereo unspecified), the TGI in test [1], in test [2], in test [3], in test [4], in test [7] and in test [5] was > 100 µM in each case. Moreover, the TGI in test [8] was > 100 µM.
Take `COC(=O)C1CSC(c2csc(CCN)n2)=N1` (stereo unspecified): the TGI in test [1], in [2], in test [3], in test [4], in [7] and in [8] was > 100 µM in each case.
For `N#CC(C#N)=CNCCN1CCN(C=C(C#N)C#N)CC1`, the TGI in [9] is > 100 µM.
As for `O=C(O)CCCCn1ccc(=O)[nH]c1=O`, the TGI in [9] was > 100 µM.
For `COC(=O)Cc1c([C@@]2(C)CCCC(C)(C)C2)ccc2c1C(=O)OC2`, the TGI in test [1] was 21 µM; in test [2], 20.4 µM; in [3] it was 47.1 µM; in [6] it was 29.4 µM; in test [7] it was 27.2 µM; in test [5], 12.2 µM. The same compound registered a TGI in test [8] of 37.3 µM.
For the compound `Nc1nc(N)c(CCCCc2ccccc2)c(C=O)n1`, the TGI is 39.1 µM in test [1]; 34.4 µM in test [2]; 89.2 µM in test [3]; > 100 µM in [6]; 46.2 µM in test [5]; 81.6 µM in [8].
On to `COC(=O)Oc1nn(C(=O)OC)c(=O)c2ccccc12`, for which the TGI in test [9] is > 100 µM.
As to `NC1N=Nc2ccccc21` (stereo unspecified), the TGI in test [1], in test [2], in test [6], in test [4], in test [7] and in [5] was > 100 µM in each case.
As for `COC(=O)C1=COC2OC3C(C(C)O)C(=O)OC34C=CC1C24` (stereo unspecified), in test [9], the TGI is > 100 µM.
In the case of `COc1cccc(C=O)c1C(=O)c1cc(O)ccc1O`, the TGI in test [1] was > 100 µM; in [2], > 48.2 µM; in test [3], 76.5 µM; in test [4] it was > 100 µM; in test [5], 30.3 µM; in test [8], > 60.8 µM.
Consider `O=C1C(=c2ccc(=C3C(=O)c4ccc([N+](=O)[O-])cc4[N+]3=O)cc2)N([O-])c2cc([N+](=O)[O-])ccc21`, for which the GI50 in test [1], in test [7] and in test [5] was > 100 µM each time. Moreover, the TGI in test [1], in test [3], in [7], in [5] and in test [8] was > 100 µM throughout.
In the case of `O=C(CCC(=O)Nc1ccc(Cl)c(Cl)c1)CC(=O)c1ccc2ccccc2c1`, the TGI in [1], in [2], in [3], in test [6], in test [7] and in test [5] was > 100 µM throughout. Moreover, the TGI in [8] was > 100 µM.
Consider `O=[N+]([O-])c1cc(-c2nc(=S)[nH][nH]2)ccc1O`, for which the TGI in [1] is > 100 µM; in [2], 86.8 µM; in test [6], > 100 µM; in [7], > 100 µM; in [5], > 100 µM; in test [8] it was > 100 µM.
On to `CC1CCCC(C(=O)CC2CC(=O)NC(=O)C2)C1=O` (stereo unspecified), for which the TGI in test [9] is > 100 µM.
Turning to `[O-]/N=[N+](/[O-])C1CCCCC1=[N+]1CCOCC1` (stereo unspecified), the TGI in test [2], in [4], in test [7] and in test [8] was > 100 µM each time.
As to `OCC1OC2c3ccccc3COC2C1OCc1ccccc1` (stereo unspecified), the TGI in test [2], in [3], in test [6], in test [4], in test [7] and in test [5] was > 100 µM throughout. Besides, in [8], the TGI was > 100 µM.
As for `CC1CCC2C(C)C(=O)OC3OC4(C)CCC1C32OO4` (stereo unspecified), the TGI in test [1], in test [2], in test [9], in [3], in [6] and in test [4] was > 100 µM each time. Further, the TGI in [7] and in test [8] was > 100 µM in each case. The GI50 in [9] was > 100 µM.
Regarding `Fc1cc(F)c(F)c(S)c1F`, the TGI in test [9] is > 100 µM.
For `O=C(O)CN(c1ccccc1)S(=O)(=O)c1cccc([N+](=O)[O-])c1`, the TGI in test [1], in test [3], in test [4], in test [7] and in [5] was > 100 µM each time.
In the case of `CC1(C)NC(=O)N(CCCCCCN2C(=O)NC(C)(C)C2=O)C1=O`, the TGI in test [1], in test [2], in [3], in test [7], in [5] and in test [8] was > 100 µM throughout.
In the case of `COc1cc2c(cc1OC)C(C#N)N(C(=O)c1ccccc1)C=C2OC(=O)c1ccccc1` (stereo unspecified), the TGI was 45.4 µM in test [1]; 89.2 µM in test [2]; 46.6 µM in test [3]; 47.7 µM in test [4]; 42.5 µM in test [7]; > 100 µM in test [5]. The compound further registered a TGI in test [8] of 76.6 µM.
Take `C/C(CCn1[nH]c(=O)ccc1=O)=N\NC(=O)C(N)=O`: the TGI in test [1], in test [2], in test [3], in test [4], in test [7] and in [5] was > 100 µM in each case. For the same compound, the TGI in test [8] is > 100 µM.
On to `N#CC1C[C@@H]2CC3(CCC2CN1C(=O)c1ccccc1)OCCO3` (stereo partly specified), for which the TGI in [1], in [2], in test [3], in [4], in test [7] and in [5] was > 100 µM each time. Moreover, in [8], the TGI is > 100 µM.
Turning to `Cc1cc(Cl)nc2ccc(Cc3ccc4nc(Cl)cc(C)c4c3)cc12`, the TGI in [9] is > 100 µM.
In the case of `N#CCCN(CCC#N)c1ccc(/C=C(/NC(=O)c2cc([N+](=O)[O-])ccc2Cl)C(=O)NN)cc1`, the TGI in [1], in [3], in test [7], in test [5] and in [8] was > 100 µM in each case.
Take `C/C(=N\NC(=S)N1CCN(c2ccccn2)CC1)c1ccccn1`: the TGI is 15 µM in test [1]; 0.335 µM and 0.103 µM in test [2]; 13.3 µM in test [9]; 14.2 µM in [7]; 15.2 µM in test [5]; 21.5 µM in [8]. The GI50 in test [4] was 0.0236 µM.
In the case of `N#CC(C#N)=NNc1ccc2cn[nH]c2c1`, the TGI in [9] was > 100 µM.
Consider `COC(=O)C12CCC(C)(C)CC1C1=CCC3C4(C)CC(O)C(O)C(C)(C(=O)OC)C4CCC3(C)C1(CO)CC2` (stereo unspecified), for which, in [9], the TGI is 26.3 µM.
With `O=C(NC(=Nc1ccccc1)SCSC(=Nc1ccccc1)NC(=O)c1ccco1)c1ccco1`, the TGI in test [1] was > 100 µM; in [2], > 100 µM; in test [6], > 100 µM; in test [4] it was 66.1 µM; in test [7] it was > 100 µM; in test [5] it was > 100 µM. In test [8], the TGI is > 100 µM.
Regarding `c1ccc2c(c1)SC(=C1Sc3ccccc3S1)S2`, the TGI in [1], in test [2], in test [3], in [6], in [4] and in test [7] was > 100 µM each time. Besides, the TGI in test [5] and in test [8] was > 100 µM in each case.
Take `ClCCCSSCCCCl`: the TGI in [9] came out at 49.7 µM.
As for `O=C(COc1ccccc1Cl)N1N=C(c2ccccc2)CC1(O)c1ccccc1` (stereo unspecified), the TGI in test [1] was 31.8 µM; in [4], 35.5 µM; in [7], > 100 µM; in test [5], 53.7 µM; in [8], 43.2 µM.
